Data taken from US20080064027A1, “TEL/Etv6-mediated inhibition of cell proliferation” (priority 2002, published 2008).
Read-outs that look alike come from different tables or passages of the source.

Tested on: Stat3-ER expressing A375 cells
Type: cell-based
Protocol: In order to understand Stat3's ability to affect cell proliferation and cell death, we have examined the profile of genes expressed upon Stat3 activation in A375 cells using oligonucleotide microarrays.
Briefly, microarray analysis was performed using HG U95A GeneChips™ (Affymetrix, Santa Clara, USA) essentially according to the manufacturer's instructions. […] RNA from three independent experiments was pooled and biotin-labeled cRNA probes were generated from each sample starting from 10 μg of total cellular RNA. The resulting biotinylated cRNAs were hybridized to the Affymetrix U95A oligonucleotide array containing more than 12,000 sequences and signals detected. Chip analysis was performed using the Affymetrix Microarray Suite v5 (target intensity 500 used for chip scaling) and GeneSpring 4.2.1 (Silicon Genetics). Changes in gene expression were assessed by looking for concordant changes between replicates using a signed Wilcoxon rank test (as recommended by Affymetrix).

CCC(=C(c1ccc(O)cc1)c1ccc(OCCN(C)C)cc1)c1ccccc1 [4HT, 4-hydroxytamoxifen, reference compound]
expression change (fold): Absent in melanoma 2 (Avge of clones): 2.1
expression change (fold): Alpha-1-antichymotrypsin precursor (Avge of clones): 2.5
expression change (fold): Aquaporin 3 (Avge of clones): 5.2
expression change (fold): Brain-derived neurotrophic factor (Avge of clones): 6.3
expression change (fold): CCAAT/enhancer binding protein (C/EBP), delta (Avge of clones): 4.6
expression change (fold): Cathepsin L (Avge of clones): 3.7
expression change (fold): Cytokine receptor-like factor 1 (Avge of clones): 4.8
expression change (fold): Death-associated protein kinase 1 (Avge of clones): 5.3
expression change (fold): Ephrin A1 precursor (Avge of clones): 4.0
expression change (fold): Ets variant gene 6 (Avge of clones): 4.2
expression change (fold): Fibronectin (Avge of clones): 4.5
expression change (fold): Fibronectin 1, isoform 1 preproprotein (Avge of clones): 5.2
expression change (fold): Glycine dehydrogenase (decarboxylating, glycine decdarboxylase, glycine cleavage system protein P) (Avge of clones): 1.7
expression change (fold): H. sapiens mRNA; cDNA DZFZp586N012 (Avge of clones): 2.3
expression change (fold): I factor (complement) (Avge of clones): 2.9
expression change (fold): Insulin-like growth factor binding protein 3 (Avge of clones): 3.9
expression change (fold): Intercellular adhesion molecule 1 precursor (Avge of clones): 2.4
expression change (fold): Interferon induced transmembrane protein 1 (9-27) (Avge of clones): 2.8
expression change (fold): Interleukin 8 (Avge of clones): 4.9
expression change (fold): Jun B proto-oncogene (Avge of clones): 3.0
expression change (fold): KIAA0161 gene product (Avge of clones): 2.4
expression change (fold): KIAA0303 protein (Avge of clones): 2.9
expression change (fold): KIAA0500 protein (Avge of clones): 4.2
expression change (fold): Killer cell lectin-like receptor subfamily C, member 2 (Avge of clones): 6.1
expression change (fold): Killer cell lectin-like receptor subfamily C, member 3 isoform NKG2-E (Avge of clones): 10.3
expression change (fold): Kynureninase (L-kynurenine hydrolase) (Avge of clones): 3.6
expression change (fold): Major vault protein (Avge of clones): 2.8
expression change (fold): Nicotinamide N-methyltransferase (Avge of clones): 2.6
expression change (fold): Niemann-Pick disease, type C1 (Avge of clones): 2.2
expression change (fold): Oncostatin M receptor (Avge of clones): 3.3
expression change (fold): Osteoprotegrin (Avge of clones): 8.6
expression change (fold): Prostatic acid phosphatase precursor (Avge of clones): 10.5
expression change (fold): Ras-induced senescence 1 (Avge of clones): 2.4
expression change (fold): Regenerating islet-derived 1 alpha (pancreatic stone protein, pancreatic thread protein) (Avge of clones): 4.0
expression change (fold): Regulator of G protein signalling 16 (Avge of clones): 5.3
expression change (fold): STAT induced STAT inhibitor 3 (Avge of clones): 9.9
expression change (fold): Secreted phosphoprotein 1 (osteopontin, bone sialoprotein 1, early T-lymphocyte activation 1) (Avge of clones): 25.5
expression change (fold): Serine (or cysteine) protease inhibitor, clade B (ovalbumin), member 3 (Avge of clones): 100.2
expression change (fold): Small inducible cytokine A2 (monocyte chemotactic protein 1) (Avge of clones): 2.4
expression change (fold): Solute carrier family 2 (facilitated glucose transporter), member 3 (Avge of clones): 2.6
expression change (fold): Stanniocalcin 1 (Avge of clones): 6.7
expression change (fold): Tyrosine phosphatase/TIGR = HG620-HT620 (Avge of clones): 2.2
expression change (fold): v-fos FBJ murine osteosarcoma viral gene homologue (Avge of clones): 3.9
expression change (fold): v-jun avian sarcoma virus 17 oncogene homologue (Avge of clones): 4.9
expression change (fold): v-maf musculoaponeurotic fibrosarcoma oncogene homologue (avian) (Avge of clones): 1.6
expression change (fold): Aquaporin 3 (Avge of clones, 2nd listing): 4.4
expression change (fold): Fibronectin 1, isoform 1 preproprotein (Avge of clones, 2nd listing): 5.0
expression change (fold): Insulin-like growth factor binding protein 3 (Avge of clones, 2nd listing): 3.1
expression change (fold): Interleukin 8 (Avge of clones, 2nd listing): 2.6
expression change (fold): Kynureninase (L-kynurenine hydrolase) (Avge of clones, 2nd listing): 3.3
expression change (fold): Oncostatin M receptor (Avge of clones, 2nd listing): 3.3
expression change (fold): Prostatic acid phosphatase precursor (Avge of clones, 2nd listing): 2.8
expression change (fold): Secreted phosphoprotein 1 (osteopontin, bone sialoprotein 1, early T-lymphocyte activation 1) (Avge of clones, 2nd listing): 18.4
expression change (fold): v-jun avian sarcoma virus 17 oncogene homologue (Avge of clones, 2nd listing): 4.3
expression change (fold): Kynureninase (L-kynurenine hydrolase) (Avge of clones, 3rd listing): 2.9
expression change (fold): Absent in melanoma 2 (Clone1): 2.2
expression change (fold): Alpha-1-antichymotrypsin precursor (Clone1): 2.7
expression change (fold): Aquaporin 3 (Clone1): 5.2
expression change (fold): Brain-derived neurotrophic factor (Clone1): 8.9
expression change (fold): CCAAT/enhancer binding protein (C/EBP), delta (Clone1): 5.6
expression change (fold): Cathepsin L (Clone1): 3.6
expression change (fold): Cytokine receptor-like factor 1 (Clone1): 5.2
expression change (fold): Death-associated protein kinase 1 (Clone1): 5.7
expression change (fold): Ephrin A1 precursor (Clone1): 2.8
expression change (fold): Ets variant gene 6 (Clone1): 3.9
expression change (fold): Fibronectin (Clone1): 4.3
expression change (fold): Fibronectin 1, isoform 1 preproprotein (Clone1): 7.7
expression change (fold): Glycine dehydrogenase (decarboxylating, glycine decdarboxylase, glycine cleavage system protein P) (Clone1): 1.8
expression change (fold): H. sapiens mRNA; cDNA DZFZp586N012 (Clone1): 2.6
expression change (fold): I factor (complement) (Clone1): 3.8
expression change (fold): Insulin-like growth factor binding protein 3 (Clone1): 2.5
expression change (fold): Intercellular adhesion molecule 1 precursor (Clone1): 2.8
expression change (fold): Interferon induced transmembrane protein 1 (9-27) (Clone1): 3.1
expression change (fold): Interleukin 8 (Clone1): 2.3
expression change (fold): Jun B proto-oncogene (Clone1): 3.3
expression change (fold): KIAA0161 gene product (Clone1): 2.5
expression change (fold): KIAA0303 protein (Clone1): 4.2
expression change (fold): KIAA0500 protein (Clone1): 1.6
expression change (fold): Killer cell lectin-like receptor subfamily C, member 2 (Clone1): 9.5
expression change (fold): Killer cell lectin-like receptor subfamily C, member 3 isoform NKG2-E (Clone1): 18.4
expression change (fold): Kynureninase (L-kynurenine hydrolase) (Clone1): 4.0
expression change (fold): Major vault protein (Clone1): 3.6
expression change (fold): Nicotinamide N-methyltransferase (Clone1): 2.7
expression change (fold): Niemann-Pick disease, type C1 (Clone1): 2.3
expression change (fold): Oncostatin M receptor (Clone1): 4.3
expression change (fold): Osteoprotegrin (Clone1): 12.9
expression change (fold): Prostatic acid phosphatase precursor (Clone1): 9.3
expression change (fold): Ras-induced senescence 1 (Clone1): 2.4
expression change (fold): Regenerating islet-derived 1 alpha (pancreatic stone protein, pancreatic thread protein) (Clone1): 4.7
expression change (fold): Regulator of G protein signalling 16 (Clone1): 6.9
expression change (fold): STAT induced STAT inhibitor 3 (Clone1): 9.2
expression change (fold): Secreted phosphoprotein 1 (osteopontin, bone sialoprotein 1, early T-lymphocyte activation 1) (Clone1): 10.8
expression change (fold): Serine (or cysteine) protease inhibitor, clade B (ovalbumin), member 3 (Clone1): 103.0
expression change (fold): Small inducible cytokine A2 (monocyte chemotactic protein 1) (Clone1): 2.8
expression change (fold): Solute carrier family 2 (facilitated glucose transporter), member 3 (Clone1): 2.9
expression change (fold): Stanniocalcin 1 (Clone1): 5.2
expression change (fold): Tyrosine phosphatase/TIGR = HG620-HT620 (Clone1): 2.3
expression change (fold): v-fos FBJ murine osteosarcoma viral gene homologue (Clone1): 3.6
expression change (fold): v-jun avian sarcoma virus 17 oncogene homologue (Clone1): 3.6
expression change (fold): v-maf musculoaponeurotic fibrosarcoma oncogene homologue (avian) (Clone1): 1.2
expression change (fold): Aquaporin 3 (Clone1, 2nd listing): 5.7
expression change (fold): Fibronectin 1, isoform 1 preproprotein (Clone1, 2nd listing): 6.8
expression change (fold): Insulin-like growth factor binding protein 3 (Clone1, 2nd listing): 2.3
expression change (fold): Interleukin 8 (Clone1, 2nd listing): 2.9
expression change (fold): Kynureninase (L-kynurenine hydrolase) (Clone1, 2nd listing): 4.3
expression change (fold): Oncostatin M receptor (Clone1, 2nd listing): 4.2
expression change (fold): Prostatic acid phosphatase precursor (Clone1, 2nd listing): 3.3
expression change (fold): Secreted phosphoprotein 1 (osteopontin, bone sialoprotein 1, early T-lymphocyte activation 1) (Clone1, 2nd listing): 16.9
expression change (fold): v-jun avian sarcoma virus 17 oncogene homologue (Clone1, 2nd listing): 5.6
expression change (fold): Kynureninase (L-kynurenine hydrolase) (Clone1, 3rd listing): 3.9
expression change (fold): Absent in melanoma 2 (Clone2): 2.0
expression change (fold): Alpha-1-antichymotrypsin precursor (Clone2): 2.3
expression change (fold): Aquaporin 3 (Clone2): 5.1
expression change (fold): Brain-derived neurotrophic factor (Clone2): 3.6
expression change (fold): CCAAT/enhancer binding protein (C/EBP), delta (Clone2): 3.7
expression change (fold): Cathepsin L (Clone2): 3.8
expression change (fold): Cytokine receptor-like factor 1 (Clone2): 4.3
expression change (fold): Death-associated protein kinase 1 (Clone2): 4.8
expression change (fold): Ephrin A1 precursor (Clone2): 5.2
expression change (fold): Ets variant gene 6 (Clone2): 4.5
expression change (fold): Fibronectin (Clone2): 4.6
expression change (fold): Fibronectin 1, isoform 1 preproprotein (Clone2): 2.6
expression change (fold): Glycine dehydrogenase (decarboxylating, glycine decdarboxylase, glycine cleavage system protein P) (Clone2): 1.6
expression change (fold): H. sapiens mRNA; cDNA DZFZp586N012 (Clone2): 2.0
expression change (fold): I factor (complement) (Clone2): 2.0
expression change (fold): Insulin-like growth factor binding protein 3 (Clone2): 5.4
expression change (fold): Intercellular adhesion molecule 1 precursor (Clone2): 2.1
expression change (fold): Interferon induced transmembrane protein 1 (9-27) (Clone2): 2.5
expression change (fold): Interleukin 8 (Clone2): 7.4
expression change (fold): Jun B proto-oncogene (Clone2): 2.6
expression change (fold): KIAA0161 gene product (Clone2): 2.4
expression change (fold): KIAA0303 protein (Clone2): 1.7
expression change (fold): KIAA0500 protein (Clone2): 6.7
expression change (fold): Killer cell lectin-like receptor subfamily C, member 2 (Clone2): 2.7
expression change (fold): Killer cell lectin-like receptor subfamily C, member 3 isoform NKG2-E (Clone2): 2.2
expression change (fold): Kynureninase (L-kynurenine hydrolase) (Clone2): 3.2
expression change (fold): Major vault protein (Clone2): 2.0
expression change (fold): Nicotinamide N-methyltransferase (Clone2): 2.5
expression change (fold): Niemann-Pick disease, type C1 (Clone2): 2.2
expression change (fold): Oncostatin M receptor (Clone2): 2.4
expression change (fold): Osteoprotegrin (Clone2): 4.4
expression change (fold): Prostatic acid phosphatase precursor (Clone2): 11.7
expression change (fold): Ras-induced senescence 1 (Clone2): 2.5
expression change (fold): Regenerating islet-derived 1 alpha (pancreatic stone protein, pancreatic thread protein) (Clone2): 3.4
expression change (fold): Regulator of G protein signalling 16 (Clone2): 3.7
expression change (fold): STAT induced STAT inhibitor 3 (Clone2): 10.5
expression change (fold): Secreted phosphoprotein 1 (osteopontin, bone sialoprotein 1, early T-lymphocyte activation 1) (Clone2): 40.1
expression change (fold): Serine (or cysteine) protease inhibitor, clade B (ovalbumin), member 3 (Clone2): 97.5
expression change (fold): Small inducible cytokine A2 (monocyte chemotactic protein 1) (Clone2): 2.0
expression change (fold): Solute carrier family 2 (facilitated glucose transporter), member 3 (Clone2): 2.3
expression change (fold): Stanniocalcin 1 (Clone2): 8.3
expression change (fold): Tyrosine phosphatase/TIGR = HG620-HT620 (Clone2): 2.1
expression change (fold): v-fos FBJ murine osteosarcoma viral gene homologue (Clone2): 4.1
expression change (fold): v-jun avian sarcoma virus 17 oncogene homologue (Clone2): 6.3
expression change (fold): v-maf musculoaponeurotic fibrosarcoma oncogene homologue (avian) (Clone2): 2.0
expression change (fold): Aquaporin 3 (Clone2, 2nd listing): 3.2
expression change (fold): Fibronectin 1, isoform 1 preproprotein (Clone2, 2nd listing): 3.3
expression change (fold): Insulin-like growth factor binding protein 3 (Clone2, 2nd listing): 3.9
expression change (fold): Interleukin 8 (Clone2, 2nd listing): 2.2
expression change (fold): Kynureninase (L-kynurenine hydrolase) (Clone2, 2nd listing): 2.4
expression change (fold): Oncostatin M receptor (Clone2, 2nd listing): 2.5
expression change (fold): Prostatic acid phosphatase precursor (Clone2, 2nd listing): 2.4
expression change (fold): Secreted phosphoprotein 1 (osteopontin, bone sialoprotein 1, early T-lymphocyte activation 1) (Clone2, 2nd listing): 20.0
expression change (fold): v-jun avian sarcoma virus 17 oncogene homologue (Clone2, 2nd listing): 3.1
expression change (fold): Kynureninase (L-kynurenine hydrolase) (Clone2, 3rd listing): 2.0
number of genes significantly decreased (after 24 hrs of treatment): 23 genes
number of genes significantly increased (after 24 hrs of treatment): 154 genes
number of genes upregulated more than two-fold (after 24 hrs of treatment): 39 genes
SOCS3 expression (as early as 1 hr after treatment): rapidly increased
